These results are taken from patent EP3929178B1, “CRYSTAL FORM OF VALNEMULIN HYDROCHLORIDE HYDRATE, PREPARATION METHOD THEREFOR, AND PHARMACEUTICAL COMPOSITION CONTAINING CRYSTAL FORM” (Hubei Longxiang Pharmaceutical Co., Ltd., priority 2019, dated 2020).

One data set in a line: Bulk density comparison. The data set is classed as physicochemical. The text has this:
The hydrate crystal and the amorphous substance and the crystal form of patent CN104876841B were compared in terms of bulk density, solubility, ect, as shown in the following table. Table 2 Physicochemical properties comparison of the valnemulin hydrochloride hydrate, the amorphous substance and the Comparative Example

Data set [1] in a line: Influencing factor (stability) experiments on crystal forms under temperature and humidity. The data set is classed as physicochemical. The settings on record: for content before placement: before placement (baseline of the stability study). The protocol: Conditions for purity detection by High Performance Liquid Chromatography (HPLC): octadecylsilane-bonded silica gel was used as filler (150 mm×4.6 mm, 3 µm); mobile phase A was phosphate buffer (pH 2.5); mobile phase B was phosphate buffer (pH 2.5)-acetonitrile (25:75); the flow rate was 1.5 ml per minute; the column temperature was 50 °C; and the detection wavelength was 200 nm. Linear gradient elution was performed according to the following table.
Table 1 Comparative study on stability of valnemulin hydrochloride hydrate, amorphous substance and the comparative crystal form

Data set [2] is described as follows: Hygroscopicity experiments. Format: physicochemical. The text has this: Table 1 Comparative study on stability of valnemulin hydrochloride hydrate, amorphous substance and the comparative crystal form The hydrate crystal and the amorphous substance and the crystal form of patent CN104876841B were compared in terms of bulk density, solubility, ect, as shown in the following table. Table 2 Physicochemical properties comparison of the valnemulin hydrochloride hydrate, the amorphous substance and the Comparative Example

Data set [3] is described as follows: Loss on granulation of aqueous solutions of amorphous product. The data set is classed as physicochemical. The settings on record: granulated at 75 °C. The text has this:
For solid drugs, different solid forms will have an important impact on physical and chemical properties such as stability, solubility, dissolution rate, bulk density and fluidity, resulting in different efficacy and bioavailability during use. Therefore, for solid pharmaceutical products, the development of different solid forms is more conducive to choosing a suitable crystal form according to the characteristics of the pharmaceutical preparation. For valnemulin hydrochloride products, compared with crystalline products, the amorphous products have problems such as poor stability, easy hygroscopicity, poor appearance, poor fluidity, and difficult storage. At the same time, aqueous solutions of amorphous valnemulin hydrochloride products are unstable during preparation process. Experiments have shown that 11.6% loss is caused when granulated at 75 °C. Therefore, there is an urgent need to develop a stable valnemulin hydrochloride crystal product to meet market demand for veterinary drugs. […] There are very few reports on the crystal form of valnemulin hydrochloride and preparation method thereof.

The conditions of data set [4]: reported for CN108892629A; cited from earlier work.
[5] abbreviates: compared with the original amorphous product.
The mark [6] stands for this setting: 25 °C, 90% relative humidity, placed for 30 days, listed as The crystal form of valnemulin hydrochloride hydrate (Example 1), hydrochloride hydrate.
Where [7] appears, read: 40 °C, 75% relative humidity, placed for 30 days.
Where [8] appears, read: 40 °C, 75% relative humidity, placed for 30 days, listed as The crystal form of valnemulin hydrochloride hydrate (Example 1), hydrochloride hydrate.
[9] abbreviates: 60 °C, 75% relative humidity, placed for 30 days.
Setting [10] is: 60 °C, 75% relative humidity, placed for 30 days, listed as The crystal form of valnemulin hydrochloride hydrate (Example 1), hydrochloride hydrate.
The mark [11] stands for this setting: 60 °C, placed in normal humidity for 30 days, listed as The crystal form of valnemulin hydrochloride hydrate (Example 1), hydrochloride hydrate.
The mark [12] stands for this setting: 25 °C, 90% relative humidity, placed for 30 days, hydrochloride.
Where [13] appears, read: 40 °C, 75% relative humidity, placed for 30 days, hydrochloride.
Where [14] appears, read: 60 °C, 75% relative humidity, placed for 30 days, hydrochloride.
[15] abbreviates: 60 °C, placed in normal humidity for 30 days, hydrochloride.

Counter-ions that a name gives are not always drawn. Like-named read-outs stand apart in the source and are kept apart here.

For the compound `C=C[C@]1(C)C[C@@H](OC(=O)CSC(C)(C)CNC(=O)[C@H](N)C(C)C)[C@]2(C)[C@H](C)CC[C@]3(CCC(=O)[C@H]32)[C@@H](C)[C@@H]1O` [Example 1, valnemulin hydrochloride hydrate], the Bulk density entry in “Bulk density comparison” (setting [5]) is “large bulk density”; in “Bulk density comparison” (listed as The crystal form of valnemulin hydrochloride hydrate (Example 1), hydrochloride hydrate) it was 0.596 g/mL. Moreover, the Appearance change result in data set [1] (setting [6]), in data set [1] (setting [8]), in data set [1] (setting [10]) and in data set [1] (setting [11]) was “White solid” each time. The “Content after placement (%)” value in data set [1] (setting [6]) came to 99.23%; in data set [1] (setting [8]), 99.20%; in data set [1] (setting [10]), 98.78%; in data set [1] (setting [11]), 98.47%. In addition, the Crystal form change entry in data set [1] (setting [6]) is reported as “No change”; in data set [1] (setting [7]), “No change”; in data set [1] (setting [9]), “No change”; in data set [1] (setting [11]) it was “No”. Further, the content before placement in data set [1] (hydrochloride hydrate) turned out to be 99.25%. In addition, the stability entry in data set [1] (setting [5]) was “enhanced stability”; in data set [1] (summary in words of Table 1), “stable”. Further, the “With or without hygroscopicity” value in data set [2] (setting [6]) was “Without hygroscopic ity”; in data set [2] (setting [8]) it was “Without hygroscopic ity”; in data set [2] (setting [10]), “Without hygroscopic ity”; in data set [2] (setting [11]) it was “Without”. Also, the hygroscopicity in data set [2] (Table 2, listed as The crystal form of valnemulin hydrochloride hydrate (Example 1), hydrochloride hydrate) is 0%; in data set [2] (setting [5]) it was “no hygroscopicity”.

With `C=C[C@]1(C)C[C@@H](OC(=O)CSC(C)(C)CNC(=O)[C@H](N)C(C)C)[C@]2(C)[C@H](C)CC[C@]3(CCC(=O)[C@H]32)[C@@H](C)[C@@H]1O` [The amorphous substance of valnemulin hydrochloride], the Bulk density in the data set “Bulk density comparison” (hydrochloride) is 0.338 g/mL. For the same compound, the Appearance change entry in data set [1] (setting [12]) is “Yellow transparent viscous solid”; in data set [1] (setting [13]), “Yellow transparent viscous solid”; in data set [1] (setting [14]) it was “Yellow”; in data set [1] (setting [15]) it was “Yellow solid”. Further, the “Content after placement (%)” value worked out at 94.56% in data set [1] (setting [12]), 90.82% in data set [1] (setting [13]), 86.12% in data set [1] (setting [14]) and 89.18% in data set [1] (setting [15]). In data set [1] (listed as valnemulin hydrochloride amorphous substance, hydrochloride), this compound showed a content before placement of 97.50%. In addition, the “With or without hygroscopicity” value in data set [2] (setting [12]) is “Severe hygroscopic ity”; in data set [2] (setting [13]) it was “Severe hygroscopic ity”; in data set [2] (setting [14]), “Severe hygroscopic ity”; in data set [2] (setting [15]) it was “Hygroscopi city”. Besides, the hygroscopicity in data set [2] (Table 2, hydrochloride) is on record as 8.86%; in data set [2] (summary in words of Table 1, hydrochloride), “absorbed moisture severely”. Besides, the loss when granulated in data set [3] stood at 11.6%.

In “Bulk density comparison” (hydrochloride), `C=C[C@]1(C)C[C@@H](OC(=O)CSC(C)(C)CNC(=O)[C@H](N)C(C)C)[C@]2(C)[C@H](C)CC[C@]3(CCC(=O)[C@H]32)[C@@H](C)[C@@H]1O` [The crystal form of Comparative Example, valnemulin hydrochloride] had a Bulk density of 0.636 g/mL. Further, the Appearance change entry in data set [1] (setting [12]) is recorded as “White solid”; in data set [1] (setting [13]) it was “White solid”; in data set [1] (setting [14]) it was “Light yellow solid”; in data set [1] (setting [15]), “Light yellow solid”. Further, the “Content after placement (%)” value amounted to 99.21% in data set [1] (setting [12]), 99.18% in data set [1] (setting [13]), 98.69% in data set [1] (setting [14]) and 98.39% in data set [1] (setting [15]). In addition, the Crystal form change result in data set [1] (setting [12]) is “Slight change”; in data set [1] (setting [7]), “No change”; in data set [1] (setting [9]), “No change”; in data set [1] (setting [15]) it was “No change”. Further, the “With or without hygroscopicity” value in data set [2] (setting [12]), in data set [2] (setting [13]), in data set [2] (setting [14]) and in data set [2] (setting [15]) was “Slightly” in each case. In addition, the hygroscopicity in data set [2] (Table 2, hydrochloride) is listed as 1.015%; in data set [2] (summary in words of Table 1, listed as The crystal form of patent CN104876841B, hydrochloride), “slightly hygroscopic”.

With `C=C[C@]1(C)C[C@@H](OC(=O)CSC(C)(C)CNC(=O)[C@H](N)C(C)C)[C@]2(C)[C@H](C)CC[C@]3(CCC(=O)[C@H]32)[C@@H](C)[C@@H]1O` [solvent-free compound, valnemulin hydrochloride], in data set [4], the Bulk density was 0.305 g/mL.
